Test system: T1, B^0AT1 ([ACE2:B^0AT1] heterodimer functional unit)
T1 construct: gene SLC6A19; native, ileal apical brush border membrane vesicles, lyophilized and reconstituted; full-length; with Angiotensin-converting enzyme 2
Assay: radiotracer uptake into brush border membrane vesicles, […] s initial rate
Assay type: biochemical, Oryctolagus cuniculus
Settings: labelled compound; Na+-dependent zero-trans influx, 100 mM NaSCN, pH 7.5, 22°C; apparent Km, major component after subtracting diffusion and a minor 'Other' component

## C[C@H](N)C(=O)O [L-alanine]
  Km: 6.9 ± 0.8 mM
